Measured values reported in patent US20160047819A1, “METHOD FOR DIAGNOSING VAGINAL INFECTIONS” (priority 2013, published 2016).

System: vaginal proteome (human proteins in vaginal fluid)
Test: MS/MS proteomic analysis of vaginal fluid pools, BV-affected women before (BV) and after rifaximin/placebo treatment: human proteins
Format: in vivo
Method: Proteomic analysis was performed on 9 pools of vaginal isolates, grouped according to the status of the BV infection: • H pool (from 41 healthy women); BV pool (from 39 BV-affected women); • A-R pool (from 2 women who were in remission after rifaximin treatment-group A); • A-N pool (from 8 women who were not in remission after rifaximin treatment-group A); • B-R pool (from 5 women who were in remission after rifaximin treatment-group B); • B-N pool (from 5 women who were not in remission after rifaximin treatment-group B); • C-R pool (from 4 women who were in remission after rifaximin treatment-group C); • C-N (from 5 women who were not in remission after rifaximin treatment-group C); • D-N (from 10 women who were not in remission after placebo treatment-group D). Scheme of the vaginal fluids collected for testing the diagnostic method is represented in FIG. 1.
In these figures are reported the peptides in the fractionated pools of healthy women, women affected by BV and peptides of women treated with rifaximin. The treatment with rifaximin was at dosage of 100 mg/day for 5 days; (remission, A-R; no remission, A-N), 25 mg/5 days (remission, B-R; no remission, B-N), 100 mg/2 days (remission, C-R; no remission, C-N), and placebo for 5 days (D-N). Two types of comparisons were carried out: (i) between fractionated pools of proteins from vaginal fluid of healthy women (HF) versus fractionated pool of proteins from vaginal fluid of women affected by bacterial vaginosis (BVF); (ii) between whole pools of proteins from vaginal fluid of women affected by BV treated by administering different doses of rifaximin or placebo before (BV) and after (A-R, A-N, B-R, B-N, C-R, C-N, D-N) treatment. Fractioned pools of proteins are obtained, e.g., by separating the proteins by separation on membrane filtration with different membrane porosity, prior to MS/MS analysis.
Nine volumes of acetone: HCl (10:1) were added to the supernatant of the vaginal rinsing and proteins were precipitated by centrifuging at 12000 g for 10 min. The protein pellet was dissolved in 1 mL of 70% ethanol and the sample was spun at 12000 g for 10 min. One mL of acetone was added and the proteins were further precipitated by centrifugation at 12000 g for 5 min. After removing supernatant, pellet was dried by SpeedVac concentrator (Thermo Savant ISS110, Thermo Fisher Scientific, Waltham, Mass.) and then stored at −20° C.
Protein extract was quantified using the 2-D Quant Kit (GE Healthcare, Uppsala, Sweden) according to the manufacturer's instructions.
Patients who were diagnosed for BV at the study visit V1 were included in a multicentre, double-blind, randomised, placebo-controlled study (EudraCT: 2009-011826-32), that was performed to compare the efficacy of different doses of rifaximin vaginal tablets versus placebo for the treatment of BV. The patients underwent a randomisation visit and were distributed into 4 treatment groups: group A received 100 mg rifaximin vaginal tablet once daily for 5 days (n=10), group B received 25 mg rifaximin vaginal tablet once daily for 5 days (n=10), group C received 100 mg rifaximin vaginal tablet once daily for the first 2 days and placebo vaginal tablet for the remaining 3 days (n=9), group D received placebo vaginal tablet once daily for 5 days (n=10). Study medication was administered intra-vaginally at bedtime. After 7 to 10 days from the end of the therapy a follow-up visit (V3) was performed. Remission was evaluated at V3 according to Amsel's criteria (<3) and Gram stain Nugent score (≦3) (Table 1).
Standardized vaginal rinsings with 2 mL of saline were collected for analysis at V1 and V3 by flushing and re-aspirating the fluid through a 22 Gauge needle in the left, central and right upper vaginal vaults. The vaginal rinsings were subsequently stored at −80° C. until use.
MS/MS analysis was carried out for H and BV pools and for the whole BV, A-R, A-N, B-R, B-N, C-R, C-N and D-N pools containing 50 μg of protein each. […]

## CO[C@H]1/C=C/O[C@@]2(C)Oc3c(C)c(O)c4c(O)c(c5c(nc6cc(C)ccn65)c4c3C2=O)NC(=O)/C(C)=C\C=C\[C@H](C)[C@H](O)[C@@H](C)[C@@H](O)[C@@H](C)[C@H](OC(C)=O)[C@@H]1C [rifaximin]
Pool A-R after treatment
  Ratio X/H Zyxin (Q15942): −3.2
Pool B-N after treatment
  Ratio X/H Sciellin (O95171): 0.0
  Ratio X/H Semenogelin-2 (Q02383): −2.3
  Ratio X/H Serine protease 27 (Q9BQR3): 0.0
  Ratio X/H Serine/threonine-protein kinase ULK1 (O75385): 0.0
  Ratio X/H Serotransferrin (P02787): 0.0
  Ratio X/H Serpin B3 (P29508): 1.8
  Ratio X/H Serpin B4 (P48594): 1.5
  Ratio X/H Serpin B5 (P36952): 0.0
  Ratio X/H Serpin B6 (P35237): 0.0
  Ratio X/H Serpin B9 (P50453): 0.0
  Ratio X/H Serpin B12 (Q96P63): −1.8
  Ratio X/H Serpin B13 (Q9UIV8): 1.5
  Ratio X/H Serum albumin (P02768): 0.0
  Ratio X/H Serum paraoxonase/arylesterase 1 (P27169): 1.7
  Ratio X/H Small proline-rich protein 3 (Q9UBC9): 0.0
  Ratio X/H Stanniocalcin-1 (P52823): 1.7
  Ratio X/H Sulfhydryl oxidase 1 (O00391): 0.0
  Ratio X/H Superoxide dismutase [Cu—Zn] (P00441): 0.0
  Ratio X/H Suprabasin (Q6UWP8): 7.6
  Ratio X/H Syntenin-1 (O00560): 2.6
  Ratio X/H Talin-1 (Q9Y490): 0.0
  Ratio X/H Tctex1 domain-containing protein 2 (Q8WW35): −25.1
  Ratio X/H Teneurin-3 (Q9P273): 12.3
  Ratio X/H Thioredoxin (P10599): 1.5
  Ratio X/H Transaldolase (P37837): 1.6
  Ratio X/H Transmembrane protease serine 11D (O60235): −1.6
  Ratio X/H Transthyretin (P02766): 0.0
  Ratio X/H Tumor protein D54 (O43399): 0.0
  Ratio X/H UTP--glucose-1-phosphate uridylyltransferase (Q16851): 0.0
  Ratio X/H UV excision repair protein RAD23 homolog B (P54727): −1.6
  Ratio X/H Versican core protein (P13611): −1.7
  Ratio X/H Vinculin (P18206): 1.5
  Ratio X/H Vitamin D-binding protein (P02774): −2.0
  Ratio X/H Werner syndrome ATP-dependent helicase (Q14191): 131.2
  Ratio X/H Zinc finger protein 185 (O15231): 0.0
  Ratio X/H Zinc finger protein 335 (Q9H4Z2): 0.0
  Ratio X/H Zinc-alpha-2-glycoprotein (P25311): 0.0
  Ratio X/H Zyxin (Q15942): 0.0
Pool B-R after treatment
  Ratio X/H Sciellin (O95171): 0.0
  Ratio X/H Semenogelin-2 (Q02383): 5.9
  Ratio X/H Serine protease 27 (Q9BQR3): −2.3
  Ratio X/H Serine/threonine-protein kinase ULK1 (O75385): −4.4
  Ratio X/H Serotransferrin (P02787): −3.9
  Ratio X/H Serpin B3 (P29508): 4.3
  Ratio X/H Serpin B4 (P48594): 0.0
  Ratio X/H Serpin B5 (P36952): −4.7
  Ratio X/H Serpin B6 (P35237): 0.0
  Ratio X/H Serpin B9 (P50453): −5.6
  Ratio X/H Serpin B12 (Q96P63): −1.9
  Ratio X/H Serpin B13 (Q9UIV8): 0.0
  Ratio X/H Serum albumin (P02768): −13.2
  Ratio X/H Serum paraoxonase/arylesterase 1 (P27169): 0.0
  Ratio X/H Small proline-rich protein 3 (Q9UBC9): 6.6
  Ratio X/H Stanniocalcin-1 (P52823): 113.1
  Ratio X/H Sulfhydryl oxidase 1 (O00391): 1.6
  Ratio X/H Superoxide dismutase [Cu—Zn] (P00441): −1.5
  Ratio X/H Suprabasin (Q6UWP8): 15.1
  Ratio X/H Syntenin-1 (O00560): −3.1
  Ratio X/H Talin-1 (Q9Y490): −1.6
  Ratio X/H Tctex1 domain-containing protein 2 (Q8WW35): 4.2
  Ratio X/H Teneurin-3 (Q9P273): −2.3
  Ratio X/H Thioredoxin (P10599): 3.1
  Ratio X/H Transaldolase (P37837): −1.7
  Ratio X/H Transmembrane protease serine 11D (O60235): 2.6
  Ratio X/H Transthyretin (P02766): −4.7
  Ratio X/H Tumor protein D54 (O43399): 2.2
  Ratio X/H UTP--glucose-1-phosphate uridylyltransferase (Q16851): 0.0
  Ratio X/H UV excision repair protein RAD23 homolog B (P54727): −2.2
  Ratio X/H Uronyl 2-sulfotransferase (Q9Y2C2): 2.1
  Ratio X/H Versican core protein (P13611): 2.6
  Ratio X/H Vinculin (P18206): 0.0
  Ratio X/H Vitamin D-binding protein (P02774): −17.8
  Ratio X/H Werner syndrome ATP-dependent helicase (Q14191): 750.5
  Ratio X/H Zinc finger protein 185 (O15231): 5.8
  Ratio X/H Zinc finger protein 335 (Q9H4Z2): −1.6
  Ratio X/H Zinc-alpha-2-glycoprotein (P25311): −9.4
  Ratio X/H Zyxin (Q15942): −5.1
Pool C-N after treatment
  Ratio X/H Sciellin (O95171): 0.0
  Ratio X/H Semenogelin-2 (Q02383): −1.8
  Ratio X/H Serine protease 27 (Q9BQR3): 0.0
  Ratio X/H Serine/threonine-protein kinase ULK1 (O75385): −1.7
  Ratio X/H Serotransferrin (P02787): −1.5
  Ratio X/H Serpin B3 (P29508): 1.6
  Ratio X/H Serpin B4 (P48594): 0.0
  Ratio X/H Serpin B5 (P36952): −2.6
  Ratio X/H Serpin B6 (P35237): 0.0
  Ratio X/H Serpin B9 (P50453): 0.0
  Ratio X/H Serpin B12 (Q96P63): 0.0
  Ratio X/H Serpin B13 (Q9UIV8): 0.0
  Ratio X/H Serum albumin (P02768): −1.6
  Ratio X/H Serum paraoxonase/arylesterase 1 (P27169): 1.5
  Ratio X/H Small proline-rich protein 3 (Q9UBC9): 1.7
  Ratio X/H Stanniocalcin-1 (P52823): 4.0
  Ratio X/H Sulfhydryl oxidase 1 (O00391): 0.0
  Ratio X/H Superoxide dismutase [Cu—Zn] (P00441): 0.0
  Ratio X/H Suprabasin (Q6UWP8): 3.9
  Ratio X/H Syntenin-1 (O00560): 0.0
  Ratio X/H Talin-1 (Q9Y490): 0.0
  Ratio X/H Tctex1 domain-containing protein 2 (Q8WW35): −13.6
  Ratio X/H Teneurin-3 (Q9P273): 10.2
  Ratio X/H Thioredoxin (P10599): 0.0
  Ratio X/H Transaldolase (P37837): −2.2
  Ratio X/H Transmembrane protease serine 11D (O60235): 0.0
  Ratio X/H Transthyretin (P02766): −1.8
  Ratio X/H Tumor protein D54 (O43399): 0.0
  Ratio X/H UTP--glucose-1-phosphate uridylyltransferase (Q16851): 0.0
  Ratio X/H UV excision repair protein RAD23 homolog B (P54727): −1.5
  Ratio X/H Uronyl 2-sulfotransferase (Q9Y2C2): −917.5
  Ratio X/H Versican core protein (P13611): 0.0
  Ratio X/H Vinculin (P18206): 0.0
  Ratio X/H Vitamin D-binding protein (P02774): 0.0
  Ratio X/H Werner syndrome ATP-dependent helicase (Q14191): 12.4
  Ratio X/H Zinc finger protein 185 (O15231): 1.5
  Ratio X/H Zinc finger protein 335 (Q9H4Z2): 0.0
  Ratio X/H Zinc-alpha-2-glycoprotein (P25311): 0.0
  Ratio X/H Zyxin (Q15942): 2.0
Pool C-R after treatment
  Ratio X/H Sciellin (O95171): 0.0
  Ratio X/H Semenogelin-2 (Q02383): 0.0
  Ratio X/H Serine protease 27 (Q9BQR3): −1.5
  Ratio X/H Serine/threonine-protein kinase ULK1 (O75385): −7.4
  Ratio X/H Serotransferrin (P02787): 0.0
  Ratio X/H Serpin B3 (P29508): 2.6
  Ratio X/H Serpin B4 (P48594): 0.0
  Ratio X/H Serpin B5 (P36952): 2.0
  Ratio X/H Serpin B6 (P35237): −2.2
  Ratio X/H Serpin B9 (P50453): −6.6
  Ratio X/H Serpin B12 (Q96P63): −1.7
  Ratio X/H Serpin B13 (Q9UIV8): 0.0
  Ratio X/H Serum albumin (P02768): −2.1
  Ratio X/H Serum paraoxonase/arylesterase 1 (P27169): 0.0
  Ratio X/H Small proline-rich protein 3 (Q9UBC9): 4.4
  Ratio X/H Stanniocalcin-1 (P52823): 13.3
  Ratio X/H Sulfhydryl oxidase 1 (O00391): −1.6
  Ratio X/H Superoxide dismutase [Cu—Zn] (P00441): 0.0
  Ratio X/H Suprabasin (Q6UWP8): 14.4
  Ratio X/H Syntenin-1 (O00560): −2.3
  Ratio X/H Talin-1 (Q9Y490): 0.0
  Ratio X/H Tctex1 domain-containing protein 2 (Q8WW35): 0.0
  Ratio X/H Teneurin-3 (Q9P273): 0.0
  Ratio X/H Thioredoxin (P10599): 0.0
  Ratio X/H Transaldolase (P37837): 2.4
  Ratio X/H Transmembrane protease serine 11D (O60235): 0.0
  Ratio X/H Transthyretin (P02766): 0.0
  Ratio X/H Tumor protein D54 (O43399): 0.0
  Ratio X/H UTP--glucose-1-phosphate uridylyltransferase (Q16851): 0.0
  Ratio X/H UV excision repair protein RAD23 homolog B (P54727): −2.2
  Ratio X/H Uronyl 2-sulfotransferase (Q9Y2C2): −7.7
  Ratio X/H Versican core protein (P13611): 0.0
  Ratio X/H Vinculin (P18206): 0.0
  Ratio X/H Vitamin D-binding protein (P02774): 0.0
  Ratio X/H Werner syndrome ATP-dependent helicase (Q14191): 209.6
  Ratio X/H Zinc finger protein 185 (O15231): 1.8
  Ratio X/H Zinc finger protein 335 (Q9H4Z2): 0.0
  Ratio X/H Zinc-alpha-2-glycoprotein (P25311): 0.0
  Ratio X/H Zyxin (Q15942): 0.0
